Test results reported in US20050038074A1, “Mitotic kinesin inhibitors” (priority 2003, published 2005).

These molecules were tested against T1, human KSP motor domain (KSP(367H)) (Homo sapiens, UniProt P52732) (assay: Kinesin ATPase In Vitro Assay). Conditions: kinesin motor domain with microtubules, 1 mM ATP, 23° C.; free phosphate by quinaldine red/ammonium molybdate.
T1 construct: were used to amplify the motor domain and the neck linker region; made in house; host or cells: E. coli BL21 (DE3)
T1 sequence (P52732 18-359 limits assumed): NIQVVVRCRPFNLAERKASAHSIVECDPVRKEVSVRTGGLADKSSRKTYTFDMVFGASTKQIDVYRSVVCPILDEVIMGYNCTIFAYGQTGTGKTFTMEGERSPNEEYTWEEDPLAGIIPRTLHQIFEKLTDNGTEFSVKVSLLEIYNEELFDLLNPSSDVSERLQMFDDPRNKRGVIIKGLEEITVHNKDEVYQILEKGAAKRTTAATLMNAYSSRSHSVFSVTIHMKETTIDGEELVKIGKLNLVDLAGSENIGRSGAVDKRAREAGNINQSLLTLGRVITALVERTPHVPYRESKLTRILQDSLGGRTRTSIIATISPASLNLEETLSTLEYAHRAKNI
Assay type: biochemical
Description: I. Kinesin ATPase In Vitro Assay
Cloning and Expression of Human Poly-Histidine Tagged KSP Motor Domain (KSP(367H))
Plasmids for the expression of the human KSP motor domain construct were cloned by PCR using a pBluescript full length human KSP construct (Blangy et al., Cell, vol.83, pp1159-1169, 1995) as a template. The N-terminal primer 5′-[…] (SEQ.ID.NO.: 1) and the C-terminal primer 5′-[…] […] (SEQ.ID.NO.: 2) were used to amplify the motor domain and the neck linker region. The PCR products were digested with AseI and XhoI, ligated into the NdeI/XhoI digestion product of pRSETa (Invitrogen) and transformed into E. coli BL21 (DE3).
Cells were grown at 37° C. to an OD600 of 0.5. After cooling the culture to room temperature expression of KSP was induced with 100 μM IPTG and incubation was continued overnight. Cells were pelleted by centrifugation and washed once with ice-cold PBS. Pellets were flash-frozen and stored −80° C.
Cell pellets were thawed on ice and resuspended in lysis buffer (50 mM K-HEPES, pH 8.0, 250 mM KCl, 0.1% Tween, 10 mM imidazole, 0.5 mM Mg-ATP, 1 mM PMSF, 2 mM benzimidine, 1× complete protease inhibitor cocktail (Roche)). Cell suspensions were incubated with 1 mg/ml lysozyme and 5 mM β-mercaptoethanol on ice for 10 minutes, followed by sonication (3×30 sec). All subsequent procedures were performed at 4° C. Lysates were centrifuged at 40,000×g for 40 minutes. Supernatants were diluted and loaded onto an SP Sepharose column (Pharmacia, 5 ml cartridge) in buffer A (50 mM K-HEPES, pH 6.8, 1 mM MgCl2, 1 mM EGTA, 10 μM Mg-ATP, 1 mM DTT) and eluted with a 0 to 750 mM KCl gradient in buffer A. Fractions containing KSP were pooled and incubated with Ni-NTA resin (Qiagen) for one hour. The resin was washed three times with buffer B (Lysis buffer minus PMSF and protease inhibitor cocktail), followed by three 15-minute incubations and washes with buffer B. Finally, the resin was incubated and washed for 15 minutes three times with buffer C (same as buffer B except for pH 6.0) and poured into a column. KSP was eluted with elution buffer (identical to buffer B except for 150 mM KCl and 250 mM imidazole). KSP-containing fractions were pooled, made 10% in sucrose, and stored at −80° C.
Microtubules are prepared from tubulin isolated from bovine brain. Purified tubulin (>97% MAP-free) at 1 mg/ml is polymerized at 37° C. in the presence of 10 JAM paclitaxel, 1 mM DTT, 1 mM GTP in BRB80 buffer (80 mM K-PIPES, 1 mM EGTA, 1 mM MgCl2 at pH 6.8). The resulting microtubules are separated from non-polymerized tubulin by ultracentrifugation and removal of the supernatant. The pellet, containing the microtubules, is gently resuspended in 10 μM paclitaxel, 1 mM DTT, 50 μg/ml ampicillin, and 5 μg/ml chloramphenicol in BRB80.
The kinesin motor domain is incubated with microtubules, 1 mM ATP (1:1 MgCl2: Na-ATP), and compound at 23° C. in buffer containing 80 mM K-HEPES (pH 7.0), 1 mM EGTA, 1 mM DTT, 1 mM MgCl2, and 50 mM KCl. The reaction is terminated by a 2-10 fold dilution with a final buffer composition of 80 mM HEPES and 50 mM EDTA. Free phosphate from the ATP hydrolysis reaction is measured via a quinaldine red/ammonium molybdate assay by adding 150 μl of quench C buffer containing a 2:1 ratio of quench A:quench B. Quench A contains 0.1 mg/mil quinaldine red and 0.14% polyvinyl alcohol; quench B contains 12.3 mM ammonium molybdate tetrahydrate in 1.15 M sulfuric acid. The reaction is incubated for 10 minutes at 23° C., and the absorbance of the phospho-molybdate complex is measured at 540 nm.

| SMILES | IC50 |
| --- | --- |
| CN1CC[C@@H](N(C)C(=O)N2CC(c3cc(F)ccc3F)=C[C@@]2(CO)c2ccccc2)[C@H](F)C1 (single isomer, unassigned) [Compound 5-3] | ≤ 50 µM |
| CN(C(=O)N1CC(c2cc(F)ccc2F)=C[C@@]1(CO)c1ccccc1)C1CCNCC1F (stereo in doubt) [Compound 10-2, (2S)-4-(2,5-Difluorophenyl)-N-[(3S,4R)-3-fluoropiperidin-4-yl]-2-(hydroxymethyl)-N-methyl-2-phenyl-2,5-dihydro-1H-pyrrole-1-carboxamide] | ≤ 50 µM |
| CN1CC[C@H](N(C)C(=O)N2CC(c3cc(F)ccc3F)=C[C@@]2(CO)c2ccccc2)[C@H](F)C1 [Compound 3-1, (2S)-4-(2,5-Difluorophenyl)-N-[(3R,4S)-3-fluoro-1-methylpiperidin-4-yl]-2-(hydroxymethyl)-N-methyl-2-phenyl-2,5-dihydro-1H-pyrrole-1-carboxamide] | ≤ 50 µM |
| CN1CC[C@@H](N(C)C(=O)N2CC(c3cc(F)ccc3F)=C[C@@]2(CO)c2ccccc2)[C@@H](F)C1 [Compound 4-2, (2S)-4-(2,5-Difluorophenyl)-N-[(3S,4R)-3-fluoro-1-methylpiperidin-4-yl]-2-(hydroxymethyl)-N-methyl-2-phenyl-2,5-dihydro-1H-pyrrole-1-carboxamide] | ≤ 50 µM |
| CN1CC[C@H](N(C)C(=O)N2CC(c3cc(F)ccc3F)=C[C@H]2c2ccccc2)[C@H](F)C1 [Compound 7-1, (2S)-4-(2,5-Difluorophenyl)-N-[(3R,4S)-3-fluoro-1-methylpiperidin-4-yl]-N-methyl-2-phenyl-2,5-dihydro-1H-pyrrole-1-carboxamide] | ≤ 50 µM |
| CN1CC[C@@H](N(C)C(=O)N2CC(c3cc(F)ccc3F)=C[C@H]2c2ccccc2)[C@@H](F)C1 [Compound 7-2, (2S)-4-(2,5-Difluorophenyl)-N-[(3S,4R)-3-fluoro-1-methylpiperidin-4-yl]-N-methyl-2-phenyl-2,5-dihydro-1H-pyrrole-1-carboxamide] | ≤ 50 µM |
| CN1CC[C@@H](N(C)C(=O)N2CC(c3cc(F)ccc3F)=C[C@H]2c2ccccc2)[C@H](F)C1 [Compound 7-3, (2S)-4-(2,5-Difluorophenyl)-N-[(3R,4R)-3-fluoro-1-methylpiperidin-4-yl]-N-methyl-2-phenyl-2,5-dihydro-1H-pyrrole-1-carboxamide] | ≤ 50 µM |
| CN(C(=O)N1CC(c2cc(F)ccc2F)=C[C@@]1(CO)c1ccccc1)[C@H]1CC[N+](C)([O-])C[C@H]1F (stereo partly drawn) [Compound 9-1, (2S)-4-(2,5-Difluorophenyl)-N-[(3R,4S)-3-fluoro-1-methyl-1-oxidopiperidin-4-yl]-2-(hydroxymethyl)-N-methyl-2-phenyl-2,5-dihydro-1H-pyrrole-1-carboxamide] | ≤ 50 µM |
| CC(C)N1CC[C@H](N(C)C(=O)N2CC(c3cc(F)ccc3F)=C[C@@]2(CO)c2ccccc2)[C@H](F)C1 [Compound 11-1, (2S)-4-(2,5-Difluorophenyl)-N-[(3R,4S)-3-fluoro-1-isopropylpiperidin-4-yl]-2-(hydroxymethyl)-N-methyl-2-phenyl-2,5-dihydro-1H-pyrrole-1-carboxamide] | ≤ 50 µM |
| CN(C(=O)N1CC(c2cc(F)ccc2F)=C[C@@]1(CO)c1ccccc1)[C@@H]1CCNC[C@@H]1F [Compound 12-1, (2S)-4-(2,5-Difluorophenyl)-N-[(3S,4R)-3-fluoropiperidin-4-yl]-2-(hydroxymethyl)-N-methyl-2-phenyl-2,5-dihydro-1H-pyrrole-1-carboxamide] | ≤ 50 µM |
| CN(C(=O)N1CC(c2cc(F)ccc2F)=C[C@@]1(CO)c1ccccc1)[C@@H]1CCNC[C@H]1F [Compound 12-2, (2S)-4-(2,5-Difluorophenyl)-N-[(3R,4R)-3-fluoropiperidin-4-yl]-2-(hydroxymethyl)-N-methyl-2-phenyl-2,5-dihydro-1H-pyrrole-1-carboxamide] | ≤ 50 µM |
| CN(C(=O)N1CC(c2cc(F)ccc2F)=C[C@@]1(CO)c1ccccc1)[C@H]1CCNC[C@@H]1F [Compound 12-3, (2S)-4-(2,5-Difluorophenyl)-N-[(3S,4S)-3-fluoropiperidin-4-yl]-2-(hydroxymethyl)-N-methyl-2-phenyl-2,5-dihydro-1H-pyrrole-1-carboxamide] | ≤ 50 µM |
